System: HCV (1b) RNA replication (replicon I389Luc-ubi-neo/NS3-3′/5.1)
Experiment: Cell-based luciferase reporter HCV (1b) RNA replication assay, Huh-ET cells
Conditions: Hepatitis C virus, HCV genotype 1b replicon
Source text: Cell-Based Luciferase Reporter HCV (Ib) RNA Replication Assay Cell Culture
Replicon cell lines Huh-5.2 are derived from the Huh-7 hepatocarcinoma cell line are maintained in culture as generally described in Krieger, N; Lohmann, V; Bartenschlager, R. Enhancement of hepatitis C virus RNA replication by cell culture-adaptive mutations. J. Virol. 2001, 75, 4614-4624. The Huh-5.2 cells contain the highly cell culture-adapted replicon I389Luc-ubi-neo/NS3-3′/5.1 construct that carries, in addition to the neomycin gene, an integrated copy to the firefly luciferase gene (Krieger, N; Lohmann, V; Bartenschlager, R. Enhancement of hepatitis C virus RNA replication by cell culture-adaptive mutations. J. Virol. 2001, 75, 4614-4624). This cell line allows measurement of HCV RNA replication and translation by measuring luciferase activity. It has been previously shown that the luciferase activity tightly follows the replicon RNA level in these cells (Krieger, N; Lohmann, V; Bartenschlager, R. Enhancement of hepatitis C virus RNA replication by cell culture-adaptive mutations. J. Virol. 2001, 75, 4614-4624). The Huh-ET cell line has the same features as those mentioned for Huh-5.2 cell line, except that ET cells are more robust and contain an adaptative mutation in the HCV NS4B gene instead of NSSA. Both cell lines are maintained in cultures at a sub-confluent level (<85%) as the level of replicon RNA is highest in actively proliferating cells. The culture media used for cell passaging consist of DMEM (Gibco BRL Laboratories, Mississauga, ON, Canada) supplemented with 10% foetal bovine serum with 1% penicilin/streptomycin, 1% glutamine, 1% sodium pyruvate, 1% non-essential amino acids, and 180 μg/ml of G418 final concentration. Cells are incubated at 37° C., in an atmosphere of 5% CO2 and passaged twice a week to maintain sub-confluence.
Approximately 3000 viable Huh-ET cells (100 μl) are plated per well in a white opaque 96-well microtiter plate. The cell culture media used for the assay is the same as described above except that it contains no G418 and no phenol red. After an incubation period of 3-4 hours at 37° C. in a 5% CO2 incubator, compounds (100 μl) are added at various concentrations. Cells are then further incubated for 4 days at 37° C. in a 5% CO2 incubator. Thereafter, the culture media is removed and cells are lysed by the addition of 95 μL of the luciferase buffer (luciferin substrate in buffered detergent). Cell lysates are incubated at room temperature and protected from direct light for at least 10 minutes. Plates are read for luciferase counts using a luminometer (Wallac MicroBeta Trilux, Perkin Elmer™, MA, USA).
Curves are fitted to data points using nonlinear regression analysis, and IC50s are interpolated from the resulting curve using GraphPad Prism software, version 2.0 (GraphPad Software Inc., San Diego, Calif., USA).

Row | Compound | EC50 (Table 2A) | EC50 (Table 2B)
1 | COC(=O)N[C@H](C(=O)N1C[C@@H](C)C[C@H]1c1nc2sc(-c3ccc(-c4ccc5nc([C@@H]6C[C@H](C)CN6C(=O)[C@@H](NC(=O)OC)C(C)C)n(C)c5c4)cc3)cc2[nH]1)C(C)C [Compound 9] | ≤ 5 nM | –
2 | COC(=O)N[C@H](C(=O)N1C[C@@H](C)C[C@H]1c1ncc(-c2ccc(-c3ccc(-c4cc5[nH]c([C@@H]6C[C@H](C)CN6C(=O)[C@@H](NC(=O)OC)C(C)C)nc5s4)cc3)c(C)c2)[nH]1)C(C)C [Compound 12a] | – | ≤ 5 nM
3 | C[C@H]1C[C@@H](c2ncc(-c3ccc(-c4ccc(-c5cc6[nH]c([C@@H]7C[C@H](C)CN7C(=O)OC(C)(C)C)nc6s5)cc4)c(F)c3)[nH]2)N(C(=O)OC(C)(C)C)C1 [Compound 4a] | – | ≤ 5 nM
4 | COC(=O)N[C@H](C(=O)N1C[C@@H](C)C[C@H]1c1ncc(C#Cc2ccc(-c3cc4[nH]c([C@@H]5C[C@H](C)CN5C(=O)[C@@H](NC(=O)OC)C(C)C)nc4s3)s2)[nH]1)C(C)C [Compound 31] | ≤ 5 nM | –
5 | COC(=O)N[C@H](C(=O)N1C[C@@H](C)C[C@H]1c1nc2cc(-c3cc4sc(-c5cc6[nH]c([C@@H]7C[C@H](C)CN7C(=O)[C@@H](NC(=O)OC)C(C)C)nc6s5)cc4s3)ccc2[nH]1)C(C)C [Compound 27] | ≤ 5 nM | –
6 | COC(=O)N[C@H](C(=O)N1C[C@@H](C)C[C@H]1c1ncc(-c2ccc(-c3ccc(-c4cc5[nH]c([C@@H]6C[C@H](C)CN6C(=O)[C@@H](NC(=O)OC)C(C)C)nc5s4)cc3)cc2F)[nH]1)C(C)C [Compound 10a] | – | ≤ 5 nM
7 | COC(=O)N[C@H](C(=O)N1C[C@@H](C)C[C@H]1c1nc(Cl)c(-c2ccc(-c3ccc(-c4sc5[nH]c([C@@H]6C[C@H](C)CN6C(=O)[C@@H](NC(=O)OC)C(C)C)nc5c4Cl)cc3)cc2)[nH]1)C(C)C [Compound 2a] | – | ≤ 5 nM
8 | COC(=O)N[C@H](C(=O)N1C[C@@H](C)C[C@H]1c1nc2cc(-c3ccc(-c4cc5[nH]c([C@@H]6C[C@H](C)CN6C(=O)[C@@H](NC(=O)OC)C(C)C)nc5s4)cc3)ccc2[nH]1)C(C)C [Compound 13] | ≤ 5 nM | –
9 | COC(=O)N[C@H](C(=O)N1C[C@@H](C)C[C@H]1c1ncc(C#Cc2ccc(-c3ccc(-c4cc5[nH]c([C@@H]6C[C@H](C)CN6C(=O)[C@@H](NC(=O)OC)C(C)C)nc5s4)cc3)cc2)[nH]1)C(C)C [Compound 15] | ≤ 5 nM | –
10 | COC(=O)N(C)[C@H](C(=O)N1C[C@@H](C)C[C@H]1c1nc2sc(C#CC#Cc3cc4[nH]c([C@@H]5C[C@H](C)CN5C(=O)[C@H](C(C)C)N(C)C(=O)OC)nc4s3)cc2[nH]1)C(C)C [Compound 5] | ≤ 5 nM | –
11 | COC(=O)N[C@H](C(=O)N1C[C@@H](C)C[C@H]1c1cc2ccc(-c3ccc(-c4cc5[nH]c([C@@H]6C[C@H](C)CN6C(=O)[C@@H](NC(=O)OC)C(C)C)nc5s4)cc3)cc2[nH]1)C(C)C [Compound 10] | ≤ 5 nM | –
12 | COC(=O)N[C@H](C(=O)N1C[C@@H](C)C[C@H]1c1nc2sc(-c3ccc(-c4ccc5nc([C@@H]6CC[C@H](C)N6C(=O)[C@@H](NC(=O)OC)C(C)C)oc5c4)cc3)cc2[nH]1)C(C)C [Compound 8] | ≤ 5 nM | –
13 | COC(=O)N[C@H](C(=O)N1C[C@@H](C)C[C@H]1c1ncc(-c2cc3sc(-c4ccc(-c5cc6[nH]c([C@@H]7C[C@H](C)CN7C(=O)[C@@H](NC(=O)OC)C(C)C)nc6s5)cc4)cc3s2)[nH]1)C(C)C [Compound 29] | ≤ 5 nM | –
14 | COC(=O)N[C@H](C(=O)N1C[C@@H](C)C[C@H]1c1ncc(-c2ccc(-c3ccc(-c4cc5[nH]c([C@@H]6C[C@H](C)CN6C(=O)[C@@H](NC(=O)OC)C(C)C)nc5s4)cc3)cc2)[nH]1)C(C)C [Compound 11] | ≤ 5 nM | –
15 | COC(=O)N[C@H](C(=O)N1C[C@@H](C)C[C@H]1c1nc2cc(C#Cc3cc4[nH]c([C@@H]5C[C@H](C)CN5C(=O)[C@@H](NC(=O)OC)C(C)C)nc4s3)ccc2[nH]1)C(C)C [Compound 3] | ≤ 5 nM | –
16 | COC(=O)N[C@H](C(=O)N1C[C@@H](C)C[C@H]1c1nc(-c2cc3sccc3s2)c(-c2ccc(-c3cc4nc([C@@H]5C[C@H](C)CN5C(=O)[C@@H](NC(=O)OC)C(C)C)[nH]c4s3)cc2)[nH]1)C(C)C [Compound 16] | ≤ 5 nM | –

Row | Compound | EC50 (Table 2A) | EC50 (Table 2B)
17 | COC(=O)N[C@H](C(=O)N1C[C@@H](C)C[C@H]1c1nc(-c2cccc(-c3ccc(-c4cc5nc([C@@H]6C[C@H](C)CN6C(=O)[C@@H](NC(=O)OC)C(C)C)[nH]c5s4)cc3)c2)c[nH]1)C(C)C [Compound 20] | ≤ 5 nM | –
18 | COC(=O)N[C@H](C(=O)N1C[C@@H](C)C[C@H]1c1ncc(-c2ccc(-c3ccc(-c4cc5[nH]c([C@@H]6C[C@H](C)CN6C(=O)[C@@H](NC(=O)OC)C(C)C)nc5s4)cc3)s2)[nH]1)C(C)C [Compound 25] | ≤ 5 nM | –
19 | COC(=O)N[C@H](C(=O)N1C[C@@H](C)C[C@H]1c1nc(C)c(-c2ccc(-c3ccc(-c4cc5nc([C@@H]6C[C@H](C)CN6C(=O)[C@@H](NC(=O)OC)C(C)C)[nH]c5s4)cc3)cc2)[nH]1)C(C)C [Compound 28] | ≤ 5 nM | –
20 | COC(=O)N[C@H](C(=O)N1C[C@@H](C)C[C@H]1c1nc(-c2csc3ccc(-c4ccc(-c5cc6nc([C@@H]7C[C@H](C)CN7C(=O)[C@@H](NC(=O)OC)C(C)C)[nH]c6s5)cc4)cc23)c[nH]1)C(C)C [Compound 23] | 5 to 5000 nM | –
21 | COC(=O)N[C@H](C(=O)N1C[C@@H](C)C[C@H]1c1nc2cc(-c3ccc(-c4ccc(-c5cc6nc([C@@H]7C[C@H](C)CN7C(=O)[C@@H](NC(=O)OC)C(C)C)[nH]c6s5)cc4)cc3)sc2[nH]1)C(C)C [Compound 24] | ≤ 5 nM | –
22 | COC(=O)N[C@H](C(=O)N1C[C@@H](C)C[C@H]1c1nc(I)c(-c2ccc(-c3ccc(-c4cc5nc([C@@H]6C[C@H](C)CN6C(=O)[C@@H](NC(=O)OC)C(C)C)[nH]c5s4)cc3)cc2)[nH]1)C(C)C [Compound 3a] | – | ≤ 5 nM
23 | COC(=O)N[C@H](C(=O)N1C[C@@H](C)C[C@H]1c1nc(-c2ccc(-c3ccc(-c4cc5[nH]c([C@@H]6C[C@H](C)CN6C(=O)[C@@H](NC(=O)OC)C(C)C)nc5s4)cc3C)cc2)c[nH]1)C(C)C [Compound 8a] | – | ≤ 5 nM
24 | COC(=O)N[C@H](C(=O)N1C[C@@H](C)C[C@H]1c1nc(-c2ccc(-c3ccc(-c4cc5[nH]c([C@@H]6C[C@H](C)CN6C(=O)[C@@H](NC(=O)OC)C(C)C)nc5s4)c(F)c3)cc2)c[nH]1)C(C)C [Compound 7a] | – | ≤ 5 nM
25 | COC(=O)N[C@H](C(=O)N1C[C@@H](C)C[C@@H]1c1nc2cc(-c3ccc(-c4ccc(-c5c[nH]c([C@@H]6C[C@H](C)CN6C(=O)[C@@H](NC(=O)OC)C(C)C)n5)cc4)cc3C)sc2[nH]1)C(C)C [Compound 5a] | – | ≤ 5 nM
26 | COC(=O)N[C@H](C(=O)N1CCC[C@H]1c1nc2sc(C#CC#Cc3cc4[nH]c([C@@H]5CCCN5C(=O)[C@@H](NC(=O)OC)C(C)C)nc4s3)cc2[nH]1)C(C)C [Compound 2] | ≤ 5 nM | –
27 | COC(=O)N[C@H](C(=O)N1C[C@@H](C)C[C@H]1c1nc2sc(-c3ccc(-c4ccc5[nH]c([C@@H]6CC[C@H](C)N6C(=O)[C@@H](NC(=O)OC)C(C)C)nc5c4)cc3)cc2[nH]1)C(C)C [Compound 7] | ≤ 5 nM | –
28 | C[C@H]1C[C@@H](c2nc3cc(-c4ccc(-c5ccc(-c6cc7[nH]c([C@@H]8C[C@H](C)CN8C(=O)OC(C)(C)C)nc7s6)cc5)s4)ccc3[nH]2)N(C(=O)OC(C)(C)C)C1 [Compound 18] | 5 to 5000 nM | –
29 | COC(=O)N[C@H](C(=O)N1C[C@@H](C)C[C@H]1c1nc2sc(C#CC#Cc3cc4[nH]c([C@@H]5C[C@H](C)CN5C(=O)[C@@H](NC(=O)OC)C(C)C)nc4s3)cc2[nH]1)C(C)C [Compound 4, dimethyl (2S,2′S)-1,1′-((3S,3′S,5S,5′S)-5,5′-(5,5′-(buta-1,3-diyne-1,4-diyl)bis(1H-thieno[2,3-d]imidazole-5,2-diyl))bis(3-methylpyrrolidine-5,1-diyl))bis(3-methyl-1-oxobutane-2,1-diyl)dicarbamate] | ≤ 5 nM | –
30 | COC(=O)N[C@H](C(=O)N1CCCC1c1nc2cc(C#Cc3cc4[nH]c([C@@H]5CCCN5C(=O)[C@@H](NC(=O)OC)C(C)C)nc4s3)ccc2[nH]1)C(C)C (stereo partly shown) [Compound 1] | ≤ 5 nM | –
31 | COC(=O)N[C@H](C(=O)N1C[C@@H](C)C[C@H]1c1ncc(-c2ccc(-c3ccc(-c4cc5[nH]c([C@@H]6C[C@H](C)CN6C(=O)[C@@H](NC(=O)OC)C(C)C)nc5s4)cc3)c(F)c2)[nH]1)C(C)C [Compound 9a] | – | ≤ 5 nM

Reference: US20130090364A1, “ANALOGUES FOR THE TREATMENT OR PREVENTION OF FLAVIVIRUS INFECTIONS” (priority 2010, published 2013)
